For data set [1] the following is noted: Crystal; DTA.
The nature of data set [2]: Molar enthalpy of transition or fusion. The conditions noted are these: Crystal; DSC.

± gives the expanded uncertainty stated by the source.

Data on eight compounds can be found in the NIST ThermoML archive (doi:10.1016/j.tca.2015.10.015).

As to `CCCCCCCCCCCCOC(=O)CCC(=O)O` [butanedioic acid, monododecyl ester], the Normal melting temperature in data set [1] is 45.80 ± 2.1 °C. Also, the “Molar enthalpy of transition or fusion” value in data set [2] amounted to 12.7 ± 0.335 kcal/mol.

In the case of `CCCCCCCCCCCCCCCCCCCCCCOC(=O)/C=C\C(=O)O` [maleic acid monodocosyl ester], the Normal melting temperature in data set [1] is 82.00 ± 5 °C. Further, the “Molar enthalpy of transition or fusion” value in data set [2] came out at 20.8 ± 0.55 kcal/mol.

In the case of `CCCCCCCCCCCCOC(=O)/C=C\C(=O)O` [maleic acid monododecyl ester], in data set [1], the Normal melting temperature was determined as 51.30 ± 4 °C. Also, in data set [2], the “Molar enthalpy of transition or fusion” value was determined as 12.4 ± 0.335 kcal/mol.

As for `CCCCCCCCCCCCCCCCOC(=O)/C=C\C(=O)O` [maleic acid monohexadecyl ester], the Normal melting temperature in data set [1] was 71.80 ± 3 °C. Moreover, the “Molar enthalpy of transition or fusion” value in data set [2] came out at 17.1 ± 0.454 kcal/mol.

Turning to `CCCCCCCCOC(=O)/C=C\C(=O)O` [maleic acid monooctyl ester], in data set [1], the Normal melting temperature worked out at 31.10 ± 3 °C. The “Molar enthalpy of transition or fusion” value in data set [2] stood at 7.93 ± 0.215 kcal/mol.

For the compound `CCCCCCCCCCCCCCCCCCCCCCOC(=O)CCC(=O)O` [succinic acid monodocosyl ester], the Normal melting temperature in data set [1] came to 73.60 ± 1.1 °C. Further, the “Molar enthalpy of transition or fusion” value in data set [2] was 22.2 ± 0.574 kcal/mol.

For the compound `CCCCCCCCCCCCCCCCOC(=O)CCC(=O)O` [succinic acid monohexadecyl ester], in data set [1], the Normal melting temperature was determined as 64.20 ± 1.1 °C. For the same compound, the “Molar enthalpy of transition or fusion” value in data set [2] was determined as 15.8 ± 0.43 kcal/mol.

Consider `CCCCCCCCOC(=O)CCC(=O)O` [succinic acid monooctyl ester], for which the Normal melting temperature in data set [1] was 36.50 ± 1.1 °C. Further, the “Molar enthalpy of transition or fusion” value in data set [2] turned out to be 9.99 ± 0.263 kcal/mol.
